Values joined by “and” are separate entries in the source; they are usually repeats but may differ in a detail not shown here. Equal entries are not always repeated.
Test system: HOP-62 multicell spheroids with HUVEC/MSC, viability
Test: Anticancer human tumor HOP-62 cell line growth inhibition [KRAS2];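 further: viability read after a week of compound exposure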;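 on viability, T/C: 100% = DMSO vehicle-treated spheroids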
Settings: for viability, T/C: stronger effect = lower value
Method in brief: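 KRAS-mutant tumor cells were grown as spheroids with HUVEC endothelial cells and human MSCs as stroma. Targeted agents were tested alone and with KRAS pathway inhibitors. Doses started at or near clinical Cmax, or 10 microM, descending half-log.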

[1] = curve of first compound, second compound 0.1 µM
[2] = curve of first compound, second compound 0.316 µM
[3] = curve of first compound, second compound 1 µM
[4] = curve of first compound, second compound 3.16 µM
[5] = curve of first compound, second compound 10 µM
[6] = second compound 0.1 µM, first compound 0.01 µM
[7] = second compound 0.1 µM, first compound 0.0316 µM
[8] = second compound 0.1 µM, first compound 0.1 µM
[9] = second compound 0.1 µM, first compound 0.316 µM
[10] = second compound 0.1 µM, first compound 1 µM
[11] = second compound 0.1 µM, first compound 3.16 µM
[12] = second compound 0.316 µM, first compound 0.01 µM
[13] = second compound 0.316 µM, first compound 0.0316 µM
[14] = second compound 0.316 µM, first compound 0.1 µM
[15] = second compound 0.316 µM, first compound 0.316 µM
[16] = second compound 0.316 µM, first compound 1 µM
[17] = second compound 0.316 µM, first compound 3.16 µM
[18] = second compound 1 µM, first compound 0.01 µM
[19] = second compound 1 µM, first compound 0.0316 µM
[20] = second compound 1 µM, first compound 0.1 µM
[21] = second compound 1 µM, first compound 0.316 µM
[22] = second compound 1 µM, first compound 1 µM
[23] = second compound 1 µM, first compound 3.16 µM
[24] = second compound 3.16 µM, first compound 0.01 µM
[25] = second compound 3.16 µM, first compound 0.0316 µM
[26] = second compound 3.16 µM, first compound 0.1 µM
[27] = second compound 3.16 µM, first compound 0.316 µM
[28] = second compound 3.16 µM, first compound 1 µM
[29] = second compound 3.16 µM, first compound 3.16 µM
[30] = second compound 10 µM, first compound 0.01 µM
[31] = second compound 10 µM, first compound 0.0316 µM
[32] = second compound 10 µM, first compound 0.1 µM
[33] = second compound 10 µM, first compound 0.316 µM
[34] = second compound 10 µM, first compound 1 µM
[35] = second compound 10 µM, first compound 3.16 µM
[36] = second compound 0.1 µM, first compound 10 µM
[37] = second compound 0.316 µM, first compound 10 µM
[38] = second compound 1 µM, first compound 10 µM
[39] = second compound 3.16 µM, first compound 10 µM

## CC1COCCN1c1cc(-c2ccnn2C)c2ccnc(-c3ccn[nH]3)c2n1 (configuration not stated) + C=CC(=O)N1CCN(c2nc(=O)n(-c3c(C)ccnc3C(C)C)c3nc(-c4c(O)cccc4F)c(F)cc23)C(C)C1
[1]
  IC50: 27.2 nM
[2]
  IC50: 33.2 nM
[3]
  IC50: 23.3 nM
[4]
  IC50: 12 nM
[5]
  IC50: < 10 nM
[6]
  viability, T/C: 61.3%
[7]
  viability, T/C: 48.3%
[8]
  viability, T/C: 15.2%
[9]
  viability, T/C: 11.7%
[10]
  viability, T/C: 11.4%
[11]
  viability, T/C: 8.87%
[12]
  viability, T/C: 66.7%
[13]
  viability, T/C: 51.5%
[14]
  viability, T/C: 19.5%
[15]
  viability, T/C: 12.7%
[16]
  viability, T/C: 10.7%
[17]
  viability, T/C: 9.1%
[18]
  viability, T/C: 65.9%
[19]
  viability, T/C: 44.2%
[20]
  viability, T/C: 19.3%
[21]
  viability, T/C: 11.1%
[22]
  viability, T/C: 10.5%
[23]
  viability, T/C: 10.7%
[24]
  viability, T/C: 53.1%
[25]
  viability, T/C: 33.5%
[26]
  viability, T/C: 15.5%
[27]
  viability, T/C: 11.7%
[28]
  viability, T/C: 13.3%
[29]
  viability, T/C: 12.1%
[30]
  viability, T/C: 33%
[31]
  viability, T/C: 23.9%
[32]
  viability, T/C: 18.1%
[33]
  viability, T/C: 15.5%
[34]
  viability, T/C: 13.8%
[35]
  viability, T/C: 11.3%

## CN(C)C/C=C/C(=O)Nc1cc2c(Nc3ccc(F)c(Cl)c3)ncnc2cc1O[C@H]1CCOC1 + CNCc1ccccc1-c1csc(C(C)Nc2nc(C)nc3cc(OC)c(OC)cc23)c1
[1]
  IC50: > 100 nM
[2]
  IC50: > 100 nM
[3]
  IC50: > 100 nM
[4]
  IC50: 0.515 nM
[5]
  IC50: < 0.316 nM
Second compound 0.1 µM, first compound 0.000316 µM
  viability, T/C: 110%
Second compound 0.1 µM, first compound 0.001 µM
  viability, T/C: 106%
Second compound 0.1 µM, first compound 0.00316 µM
  viability, T/C: 111%
[6]
  viability, T/C: 115%
[7]
  viability, T/C: 111%
[8]
  viability, T/C: 96.5%
Second compound 0.316 µM, first compound 0.000316 µM
  viability, T/C: 124%
Second compound 0.316 µM, first compound 0.001 µM
  viability, T/C: 115%
Second compound 0.316 µM, first compound 0.00316 µM
  viability, T/C: 110%
[12]
  viability, T/C: 109%
[13]
  viability, T/C: 113%
[14]
  viability, T/C: 108%
Second compound 1 µM, first compound 0.000316 µM
  viability, T/C: 101%
Second compound 1 µM, first compound 0.001 µM
  viability, T/C: 105%
Second compound 1 µM, first compound 0.00316 µM
  viability, T/C: 101%
[18]
  viability, T/C: 99.8%
[19]
  viability, T/C: 85.8%
[20]
  viability, T/C: 101%
Second compound 3.16 µM, first compound 0.000316 µM
  viability, T/C: 73.8%
Second compound 3.16 µM, first compound 0.001 µM
  viability, T/C: 16.4%
Second compound 3.16 µM, first compound 0.00316 µM
  viability, T/C: 19.2%
[24]
  viability, T/C: 6.17%
[25]
  viability, T/C: 31.4%
[26]
  viability, T/C: 14%
Second compound 10 µM, first compound 0.000316 µM
  viability, T/C: 0.18%
Second compound 10 µM, first compound 0.001 µM
  viability, T/C: 0.14%
Second compound 10 µM, first compound 0.00316 µM
  viability, T/C: 0.15%
[30]
  viability, T/C: 0.15%
[31]
  viability, T/C: 0.16%
[32]
  viability, T/C: 1.46%

## COc1cc2nccc(Oc3ccc(NC(=O)C4(C(=O)Nc5ccc(F)cc5)CC4)cc3)c2cc1OC + C=CC(=O)N1CCN(c2nc(OCC3CCCN3C)nc3c2CCN(c2cccc4cccc(C)c24)C3)CC1CC#N
Curve of first compound, second compound 0.0316 µM
  IC50: 1910 nM
[1]
  IC50: 1060 nM
[2]
  IC50: 31.6 nM
[3]
  IC50: < 31.6 nM
[4]
  IC50: < 31.6 nM
Second compound 0.0316 µM, first compound 0.0316 µM
  viability, T/C: 64.8%
Second compound 0.0316 µM, first compound 0.1 µM
  viability, T/C: 68.5%
Second compound 0.0316 µM, first compound 0.316 µM
  viability, T/C: 64%
Second compound 0.0316 µM, first compound 1 µM
  viability, T/C: 77.8%
Second compound 0.0316 µM, first compound 3.16 µM
  viability, T/C: 35.4%
Second compound 0.0316 µM, first compound 10 µM
  viability, T/C: 8.75%
[7]
  viability, T/C: 50.5%
[8]
  viability, T/C: 51.4%
[9]
  viability, T/C: 49.5%
[10]
  viability, T/C: 53.4%
[11]
  viability, T/C: 29%
[36]
  viability, T/C: 12%
[13]
  viability, T/C: 42%
[14]
  viability, T/C: 38.5%
[15]
  viability, T/C: 47.9%
[16]
  viability, T/C: 53.8%
[17]
  viability, T/C: 24.9%
[37]
  viability, T/C: 8.51%
[19]
  viability, T/C: 27.4%
[20]
  viability, T/C: 31.1%
[21]
  viability, T/C: 25.3%
[22]
  viability, T/C: 30.6%
[23]
  viability, T/C: 19.9%
[38]
  viability, T/C: 0.15%
[25]
  viability, T/C: 0.14%
[26]
  viability, T/C: 0.75%
[27]
  viability, T/C: 0.15%
[28]
  viability, T/C: 0.37%
[29]
  viability, T/C: 0.13%
[39]
  viability, T/C: 0.23%

## CC(C)n1nc(-c2ccc3oc(N)nc3c2)c2c(N)ncnc21
Compound 0.000316 µM
  viability, T/C: 93.7% [middle of 5 runs]
Compound 0.001 µM
  viability, T/C: 80.3% [middle of 5 runs]
Compound 0.01 µM
  viability, T/C: 44% [middle of 5 runs]
Compound 0.0316 µM
  viability, T/C: 25.6% [middle of 5 runs]
Compound 0.1 µM
  viability, T/C: 18.1% [middle of 5 runs]

## CC(=O)OC12COC1CC(O)C1(C)C(=O)C(O)C3=C(C)C(OC(=O)C(O)C(NC(=O)OC(C)(C)C)c4ccccc4)CC(O)(C(OC(=O)c4ccccc4)C21)C3(C)C (configuration not stated) + C=CC(=O)N1CCN(c2nc(=O)n(-c3c(C)ccnc3C(C)C)c3nc(-c4c(O)cccc4F)c(F)cc23)C(C)C1
[1]
  IC50: < 10 nM
[2]
  IC50: < 10 nM
[3]
  IC50: < 10 nM
[4]
  IC50: < 10 nM
[5]
  IC50: < 10 nM
[6]
  viability, T/C: 24.3%
[7]
  viability, T/C: 27.3%
[8]
  viability, T/C: 26.8%
[9]
  viability, T/C: 25.1%
[10]
  viability, T/C: 25.2%
[11]
  viability, T/C: 28.5%
[12]
  viability, T/C: 29.5%
[13]
  viability, T/C: 23.9%
[14]
  viability, T/C: 24.7%
[15]
  viability, T/C: 27.3%
[16]
  viability, T/C: 24.9%
[17]
  viability, T/C: 31.1%
[18]
  viability, T/C: 29.4%
[19]
  viability, T/C: 23%
[20]
  viability, T/C: 28%
[21]
  viability, T/C: 27.8%
[22]
  viability, T/C: 30.2%
[23]
  viability, T/C: 30%
[24]
  viability, T/C: 32.8%
[25]
  viability, T/C: 25.4%
[26]
  viability, T/C: 27%
[27]
  viability, T/C: 35.1%
[28]
  viability, T/C: 32.5%
[29]
  viability, T/C: 33.1%
[30]
  viability, T/C: 28.1%
[31]
  viability, T/C: 26.9%
[32]
  viability, T/C: 27.9%
[33]
  viability, T/C: 29.9%
[34]
  viability, T/C: 30.8%
[35]
  viability, T/C: 34.6%

## O=C(c1cc(Cc2n[nH]c(=O)c3ccccc23)ccc1F)N1CCN(C(=O)C2CC2)CC1
Compound 0.0316 µM
  viability, T/C: 105% [middle of 5 runs]
Compound 0.1 µM
  viability, T/C: 102% [middle of 5 runs]
Compound 0.316 µM
  viability, T/C: 93.2% [middle of 5 runs]
Compound 10 µM
  viability, T/C: 50.4% [middle of 5 runs]
Curve of compound
  IC50: 4880 nM and > 10000 nM and 4580 nM

## CC(C)NCC(C(=O)N1CCN(c2ncnc3c2C(C)CC3O)CC1)c1ccc(Cl)cc1 (configuration not stated) + C=CC(=O)N1CCN(c2nc(=O)n(-c3c(C)ccnc3C(C)C)c3nc(-c4c(O)cccc4F)c(F)cc23)C(C)C1
[1]
  IC50: 69.2 nM
[2]
  IC50: 70 nM
[3]
  IC50: 88.9 nM
[4]
  IC50: 110 nM
[5]
  IC50: < 31.6 nM
[7]
  viability, T/C: 60.9%
[8]
  viability, T/C: 45.3%
[9]
  viability, T/C: 22.2%
[10]
  viability, T/C: 12.4%
[11]
  viability, T/C: 7.1%
[36]
  viability, T/C: 5.4%
[13]
  viability, T/C: 53.8%
[14]
  viability, T/C: 49.1%
[15]
  viability, T/C: 28.2%
[16]
  viability, T/C: 12.9%
[17]
  viability, T/C: 6.09%
[37]
  viability, T/C: 5.39%
[19]
  viability, T/C: 57.2%
[20]
  viability, T/C: 49.6%
[21]
  viability, T/C: 27.2%
[22]
  viability, T/C: 11.8%
[23]
  viability, T/C: 6.8%
[38]
  viability, T/C: 5.57%
[25]
  viability, T/C: 55.7%
[26]
  viability, T/C: 51%
[27]
  viability, T/C: 36.3%
[28]
  viability, T/C: 15.1%
[29]
  viability, T/C: 7.34%
[39]
  viability, T/C: 4.5%
[31]
  viability, T/C: 43.3%
[32]
  viability, T/C: 28.1%
[33]
  viability, T/C: 19.5%
[34]
  viability, T/C: 12.8%
[35]
  viability, T/C: 8.3%
Second compound 10 µM, first compound 10 µM
  viability, T/C: 5.28%

## CCN1CCN(Cc2ccc(Nc3ncc(F)c(-c4cc(F)c5nc(C)n(C(C)C)c5c4)n3)nc2)CC1
Compound 0.00316 µM
  viability, T/C: 102% [middle of 5 runs]
Compound 0.01 µM
  viability, T/C: 102% [middle of 5 runs]
Compound 0.0316 µM
  viability, T/C: 99.7% [middle of 5 runs]
Compound 0.1 µM
  viability, T/C: 98.1% [middle of 5 runs]
Compound 0.316 µM
  viability, T/C: 86.3% [middle of 5 runs]
Compound 1 µM
  viability, T/C: 68% [middle of 5 runs]
Curve of compound
  IC50: > 1000 nM

From PubChem BioAssay AID1963858 (Molecular Pharmacology Branch, DTP, NCI, 2024)
